Results: patent publication US11672788B2, “Histone deacetylase inhibitors for immunomodulation in tumor microenvironment” (GREAT NOVEL THERAPEUTICS BIOTECH & MEDICALS CORPORATION, priority 2020, dated 2023)
Entries after “also recorded” stand apart in the source; their conditions may differ.

Experiments:
NCI-N87 = test: In vitro cytotoxicity MTT assay; format: cell-based; details: Homo sapiens, 72 h, IC50 ± SD
Outline: (§1)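 Viability is determined by MTT after 72 h of treatment, using 2.4×10^4 seeded cells for SW48, NCI-N87 and MDA-MB-453 and 6×10^3 for MDA-MB-231.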

SK-BR-3 = test: In vitro cytotoxicity MTT assay; format: cell-based; details: Homo sapiens, 72 h, IC50 ± SD
Outline: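 Plated 96-well (MDA-MB-231 6×10^3; others 2.4×10^4); treated 72 h; MTT.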

M10 = test: In vitro cytotoxicity MTT assay; format: cell-based, human; details: Homo sapiens, M10, 72 h, IC50 ± SD
Outline: as §1

MDA-MB-231 = test: In vitro cytotoxicity MTT assay; format: cell-based, human; details: Homo sapiens, MDA-MB-231, 72 h, IC50 ± SD
Outline: as §1

MDA-MB-453 = test: In vitro cytotoxicity MTT assay; format: cell-based, human; details: Homo sapiens, MDA-MB-453, 72 h, IC50 ± SD
Outline: as §1

SW48 = test: In vitro cytotoxicity MTT assay; format: cell-based, human; details: Homo sapiens, SW48, 72 h, IC50 ± SD
Outline: as §1

HDAC1 = HDAC1 (Homo sapiens (Human), UniProt Q13547); test: HDACs 1, 2, and 3 enzymatic inhibition (fluorogenic kit, 1 h); format: biochemical; details: 37° C.
Procedure: (§2) HDACs assay was performed according to standard Protocols (Fluorgenic HDACs 1, 2, and 3 assay kit, BPS Bioscience™). […] After 1 h, assay developer was added to the samples and the absorbance was read at fluorogenic wavelength. The relative inhibition to HDACs 1, 2, and 3 activities in each sample was determined.

HDAC2 = HDAC2 (Homo sapiens (Human), UniProt Q92769); test: as above; format: biochemical; details: 37° C.
Procedure: as §2

HDAC3 = HDAC3 (Homo sapiens (Human), UniProt O15379); test: as above; format: biochemical; details: 37° C.
Procedure: as §2

M10 cells [1] = test: Cell cycle arrest by PI flow cytometry; format: cell-based, human; details: M10, 12.5 μM, 72 h
Procedure: (§3) A PI/RNase staining assay (BD Bioscience™) was performed to reveal the presence of cell cycle arrest and apoptotic cells after treatment with GNTbm compounds, Chidamide and Entinostat. […] After treatment cells were harvested, fixed with 80% ethanol for 24 h, washed with 1×PBS and stained with PI/RNase for 15 min at room temperature. The cells were then analyzed using Flow Cytometer within 1 h.

MDA-MB-231 cells [2] = test: Cell cycle arrest by PI flow cytometry; format: cell-based, human; details: MDA-MB-231, 3.125 μM, 72 h
Procedure: as §3

SW48 cells [3] = test: Cell cycle arrest by PI flow cytometry; format: cell-based, human; details: SW48, 3.125 μM, 72 h
Procedure: as §3

M10 cells [4] = test: Cell apoptosis (sub-G1) by PI flow cytometry; format: cell-based, human; details: M10, 12.5 μM, 72 h
Procedure: as §3

MDA-MB-231 cells [5] = test: Cell apoptosis (sub-G1) by PI flow cytometry; format: cell-based, human; details: MDA-MB-231, 6.25 μM, 72 h
Procedure: as §3

SW48 cells [6] = test: Cell apoptosis (sub-G1) by PI flow cytometry; format: cell-based, human; details: SW48, 6.25 μM, 72 h
Procedure: as §3

[7] = test system: histone H3 acetylation (AcH3) in MDA-MB-231 cells; test: Western blot of histone H3 acetylation; format: cell-based, human; details: MDA-MB-231, 1.0 μM
Outline: (§4)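 MDA-MB-231 and SW48 cells in L-15 with 10% FCS were treated at indicated doses for 24 h or over a time course. RIPA lysates were immunoblotted for acetylated histone H3 with β-actin as loading control, using ECL detection.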

[8] = test system: histone H3 acetylation (AcH3) in SW48 cells; test: Western blot of histone H3 acetylation; format: cell-based, human; details: SW48, 1.0 μM, 2-72 h
Outline: as §4

M10 cells [9] = test: Cell proliferation and morphology by phase-contrast light microscopy; format: cell-based, human; details: M10, 12.5 μM
Description: (§5) (FIG. 3A) MDA-MB-231 cells, (FIG. 3B) SW48 cells, (FIG. 3C) M10 cells.

SW48 cells [10] = test: as above; format: cell-based, human; details: SW48, 3.125 μM, 72 h
Description: as §5

HDAC4 = HDAC4 (Homo sapiens (Human), UniProt P56524); test: HDACs 1-11 enzymatic inhibition by BPS Bioscience
Procedure: (§6) HDAC assay was performed according to standard Protocols (Fluorgenic HDACs 1-11 assay kit, BPS Bioscience™). […] After 0.5 h, assay developer was added to the samples and the absorbance was read at fluorogenic wavelength. The relative inhibition to HDACs 1, 2, 3, 4, 5, 6, 7, 8, 9, and 11 activities was determined in each sample. […] All of the compounds were dissolved in DMSO. The serial dilution of the compounds was first performed in 100% DMSO with the highest concentration at 1 mM. Each intermediate compound dilution (in 100% DMSO) would then get directly diluted 10× fold into assay buffer for an intermediate dilution of 10% DMSO in HDAC assay buffer and 5 μl of the dilution was added to a 50 μl reaction so that the final concentration of DMSO is 1% in all of the reactions. The enzymatic reactions for the HDAC enzymes were conducted in duplicate at 37° C. for 30 minutes in a 50 μl mixture containing HDAC assay buffer, 5 μg BSA, an HDAC substrate, a HDAC enzyme and a test compound. After enzymatic reactions, 50 μl of 2×HDAC Developer was added to each well for the HDAC enzymes and the plate was incubated at room temperature for an additional 15 minutes. Fluorescence intensity was measured at an excitation of 360 nm and an emission of 460 nm using a Tecan Infinite M1000 microplate reader. HDAC activity assays were performed in duplicate at each concentration. The fluorescent intensity data were analyzed using the computer software, Graphpad Prism. In the absence of the compound, the fluorescent intensity (Ft) in each data set was defined as 100% activity. In the absence of HDAC, the fluorescent intensity (Fb) in each data set was defined as 0% activity. The percent activity in the presence of each compound was calculated according to the following equation: % activity=(F−Fb)/(Ft−Fb), where F=the fluorescent intensity in the presence of the compound. […] The IC50 value was determined by the concentration causing a half-maximal percent activity.

HDAC7 = HDAC7 (Homo sapiens (Human), UniProt Q8WUI4); test: HDACs 1-11 enzymatic inhibition by BPS Bioscience
Procedure: as §6

HDAC9 = HDAC9 (Homo sapiens (Human), UniProt Q9UKV0); test: HDACs 1-11 enzymatic inhibition by BPS Bioscience
Procedure: as §6

HDAC11 = HDAC11 (Homo sapiens (Human), UniProt Q96DB2); test: HDACs 1-11 enzymatic inhibition by BPS Bioscience
Sequence of HDAC11 (Q96DB2 whole entry): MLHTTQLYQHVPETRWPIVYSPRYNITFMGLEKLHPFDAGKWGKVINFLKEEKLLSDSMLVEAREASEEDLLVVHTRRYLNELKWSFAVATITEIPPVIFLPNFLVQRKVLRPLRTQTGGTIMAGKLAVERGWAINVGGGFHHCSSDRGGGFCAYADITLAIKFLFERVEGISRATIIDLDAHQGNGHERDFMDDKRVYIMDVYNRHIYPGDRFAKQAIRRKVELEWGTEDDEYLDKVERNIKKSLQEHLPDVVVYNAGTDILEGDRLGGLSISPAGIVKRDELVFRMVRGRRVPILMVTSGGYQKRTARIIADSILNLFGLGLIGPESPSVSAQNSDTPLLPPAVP
Procedure: HDAC assay was performed according to standard Protocols (Fluorgenic HDACs 1-11 assay kit, BPS Bioscience™). […] After 0.5 h, assay developer was added to the samples and the absorbance was read at fluorogenic wavelength. The relative inhibition to HDACs 1, 2, 3, 4, 5, 6, 7, 8, 9, and 11 activities was determined in each sample. […] All of the compounds were dissolved in DMSO. The serial dilution of the compounds was first performed in 100% DMSO with the highest concentration at 1 mM. Each intermediate compound dilution (in 100% DMSO) would then get directly diluted 10× fold into assay buffer for an intermediate dilution of 10% DMSO in HDAC assay buffer and 5 μl of the dilution was added to a 50 μl reaction so that the final concentration of DMSO is 1% in all of the reactions. The enzymatic reactions for the HDAC enzymes were conducted in duplicate at 37° C. for 30 minutes in a 50 μl mixture containing HDAC assay buffer, 5 μg BSA, an HDAC substrate, a HDAC enzyme and a test compound. After enzymatic reactions, 50 μl of 2×HDAC Developer was added to each well for the HDAC enzymes and the plate was incubated at room temperature for an additional 15 minutes. Fluorescence intensity was measured at an excitation of 360 nm and an emission of 460 nm using a Tecan Infinite M1000 microplate reader. HDAC activity assays were performed in duplicate at each concentration. The fluorescent intensity data were analyzed using the computer software, Graphpad Prism. In the absence of the compound, the fluorescent intensity (Ft) in each data set was defined as 100% activity. In the absence of HDAC, the fluorescent intensity (Fb) in each data set was defined as 0% activity. The percent activity in the presence of each compound was calculated according to the following equation: % activity=(F−Fb)/(Ft−Fb), where F=the fluorescent intensity in the presence of the compound. The values of % activity versus a series of compound concentrations were then plotted using non-linear regression analysis of Sigmoidal dose-response curve generated with the equation Y=B+(T−B)/1+10((Log EC50−X)×Hill Slope), where Y=percent activity, B=minimum percent activity, T=maximum percent activity, X=logarithm of compound and Hill Slope=slope factor or Hill coefficient. The IC50 value was determined by the concentration causing a half-maximal percent activity.

Sequence of HDAC7 (Q8WUI4 whole entry): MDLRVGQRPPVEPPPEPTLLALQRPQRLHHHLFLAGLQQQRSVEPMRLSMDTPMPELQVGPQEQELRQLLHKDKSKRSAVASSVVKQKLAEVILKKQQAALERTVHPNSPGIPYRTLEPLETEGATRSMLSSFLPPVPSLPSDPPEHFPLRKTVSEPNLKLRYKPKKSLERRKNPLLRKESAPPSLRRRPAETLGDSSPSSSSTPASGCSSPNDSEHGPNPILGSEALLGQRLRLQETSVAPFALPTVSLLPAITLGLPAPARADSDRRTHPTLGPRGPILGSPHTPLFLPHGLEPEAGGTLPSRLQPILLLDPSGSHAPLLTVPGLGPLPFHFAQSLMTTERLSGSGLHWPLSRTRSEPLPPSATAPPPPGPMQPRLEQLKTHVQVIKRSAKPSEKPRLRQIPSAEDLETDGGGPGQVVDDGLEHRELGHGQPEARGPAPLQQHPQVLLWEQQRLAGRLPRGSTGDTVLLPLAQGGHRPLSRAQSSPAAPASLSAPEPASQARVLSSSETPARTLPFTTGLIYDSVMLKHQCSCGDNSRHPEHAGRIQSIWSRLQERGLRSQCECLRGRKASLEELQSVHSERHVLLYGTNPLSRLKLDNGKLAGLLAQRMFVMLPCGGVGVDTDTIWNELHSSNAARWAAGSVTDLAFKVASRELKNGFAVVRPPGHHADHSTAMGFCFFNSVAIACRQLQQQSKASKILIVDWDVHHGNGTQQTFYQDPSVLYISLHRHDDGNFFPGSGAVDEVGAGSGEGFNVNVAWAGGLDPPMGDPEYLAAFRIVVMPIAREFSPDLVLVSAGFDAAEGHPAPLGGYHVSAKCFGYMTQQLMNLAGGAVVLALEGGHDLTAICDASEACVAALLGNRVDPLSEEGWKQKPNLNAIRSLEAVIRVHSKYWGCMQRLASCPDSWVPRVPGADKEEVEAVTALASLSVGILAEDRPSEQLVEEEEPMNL
Sequence of HDAC9 (Q9UKV0 whole entry): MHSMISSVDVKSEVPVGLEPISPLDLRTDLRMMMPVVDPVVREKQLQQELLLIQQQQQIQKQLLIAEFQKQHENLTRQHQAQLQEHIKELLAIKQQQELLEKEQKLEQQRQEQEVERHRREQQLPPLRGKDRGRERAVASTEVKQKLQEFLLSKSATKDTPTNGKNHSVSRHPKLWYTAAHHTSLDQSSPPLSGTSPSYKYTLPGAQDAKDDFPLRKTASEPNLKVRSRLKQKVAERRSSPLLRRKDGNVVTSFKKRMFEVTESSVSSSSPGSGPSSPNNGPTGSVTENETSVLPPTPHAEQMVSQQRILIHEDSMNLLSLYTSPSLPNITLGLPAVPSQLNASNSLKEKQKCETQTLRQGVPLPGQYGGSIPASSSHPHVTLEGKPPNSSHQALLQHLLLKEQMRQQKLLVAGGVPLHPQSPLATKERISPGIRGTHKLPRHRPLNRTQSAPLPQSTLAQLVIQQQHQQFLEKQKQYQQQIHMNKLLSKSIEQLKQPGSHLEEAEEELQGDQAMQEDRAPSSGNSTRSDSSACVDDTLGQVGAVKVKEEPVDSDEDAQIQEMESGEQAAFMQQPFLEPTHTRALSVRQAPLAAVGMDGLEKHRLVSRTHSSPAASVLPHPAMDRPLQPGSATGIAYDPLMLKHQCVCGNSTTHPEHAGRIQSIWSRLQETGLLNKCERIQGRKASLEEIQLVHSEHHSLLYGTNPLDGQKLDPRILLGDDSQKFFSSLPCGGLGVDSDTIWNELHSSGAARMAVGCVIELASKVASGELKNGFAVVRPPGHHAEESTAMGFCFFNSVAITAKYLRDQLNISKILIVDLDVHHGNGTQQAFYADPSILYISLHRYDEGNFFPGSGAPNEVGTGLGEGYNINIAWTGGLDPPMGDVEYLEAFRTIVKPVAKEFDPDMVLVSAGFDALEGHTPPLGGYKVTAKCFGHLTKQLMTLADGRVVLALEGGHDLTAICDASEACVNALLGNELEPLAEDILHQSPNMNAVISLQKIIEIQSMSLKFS
Sequence of HDAC4 (P56524 whole entry): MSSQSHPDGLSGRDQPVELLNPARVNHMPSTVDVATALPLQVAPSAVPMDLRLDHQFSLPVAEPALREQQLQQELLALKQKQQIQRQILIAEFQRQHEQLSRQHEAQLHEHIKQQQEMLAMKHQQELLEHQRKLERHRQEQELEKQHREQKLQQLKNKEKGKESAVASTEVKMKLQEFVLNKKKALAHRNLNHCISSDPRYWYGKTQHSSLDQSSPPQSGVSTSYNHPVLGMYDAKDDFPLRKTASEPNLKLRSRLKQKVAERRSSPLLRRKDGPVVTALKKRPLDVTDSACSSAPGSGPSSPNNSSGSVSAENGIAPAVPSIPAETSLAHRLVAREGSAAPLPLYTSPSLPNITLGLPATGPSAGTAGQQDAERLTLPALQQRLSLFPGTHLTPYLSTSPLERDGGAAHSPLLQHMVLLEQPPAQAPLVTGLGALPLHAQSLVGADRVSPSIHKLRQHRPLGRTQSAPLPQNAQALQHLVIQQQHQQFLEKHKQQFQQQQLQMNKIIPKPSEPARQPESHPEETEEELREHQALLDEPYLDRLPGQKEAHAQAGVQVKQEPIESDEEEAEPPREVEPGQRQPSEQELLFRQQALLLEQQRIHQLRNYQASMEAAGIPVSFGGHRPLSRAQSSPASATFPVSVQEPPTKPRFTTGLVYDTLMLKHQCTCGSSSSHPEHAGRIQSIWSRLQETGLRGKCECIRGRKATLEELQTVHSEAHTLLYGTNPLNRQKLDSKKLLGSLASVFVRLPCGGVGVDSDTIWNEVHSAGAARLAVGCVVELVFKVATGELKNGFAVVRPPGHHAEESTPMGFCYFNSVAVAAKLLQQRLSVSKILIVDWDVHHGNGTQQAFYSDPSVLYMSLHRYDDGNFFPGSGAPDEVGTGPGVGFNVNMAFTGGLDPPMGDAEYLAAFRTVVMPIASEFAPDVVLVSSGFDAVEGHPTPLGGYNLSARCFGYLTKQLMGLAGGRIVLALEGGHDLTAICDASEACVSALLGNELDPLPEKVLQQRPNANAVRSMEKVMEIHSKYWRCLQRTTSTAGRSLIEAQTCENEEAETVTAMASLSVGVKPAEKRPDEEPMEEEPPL
Sequence of HDAC3 (O15379 whole entry): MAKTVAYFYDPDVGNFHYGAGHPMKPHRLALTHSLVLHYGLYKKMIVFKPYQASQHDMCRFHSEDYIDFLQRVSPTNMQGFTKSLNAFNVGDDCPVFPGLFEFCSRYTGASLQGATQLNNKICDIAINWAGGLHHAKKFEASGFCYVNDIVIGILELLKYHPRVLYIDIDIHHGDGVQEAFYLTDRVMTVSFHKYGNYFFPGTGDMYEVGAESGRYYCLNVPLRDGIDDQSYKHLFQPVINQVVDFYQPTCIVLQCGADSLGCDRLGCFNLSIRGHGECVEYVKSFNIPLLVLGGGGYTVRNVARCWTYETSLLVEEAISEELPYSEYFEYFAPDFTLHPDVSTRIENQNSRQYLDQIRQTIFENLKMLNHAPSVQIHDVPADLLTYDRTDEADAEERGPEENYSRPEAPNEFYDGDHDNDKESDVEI
Sequence of HDAC3 (Q9Y618 395-489 partner): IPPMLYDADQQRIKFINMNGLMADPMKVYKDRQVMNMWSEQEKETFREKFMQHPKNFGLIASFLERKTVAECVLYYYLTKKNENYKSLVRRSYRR
Sequence of HDAC2 (Q92769 whole entry): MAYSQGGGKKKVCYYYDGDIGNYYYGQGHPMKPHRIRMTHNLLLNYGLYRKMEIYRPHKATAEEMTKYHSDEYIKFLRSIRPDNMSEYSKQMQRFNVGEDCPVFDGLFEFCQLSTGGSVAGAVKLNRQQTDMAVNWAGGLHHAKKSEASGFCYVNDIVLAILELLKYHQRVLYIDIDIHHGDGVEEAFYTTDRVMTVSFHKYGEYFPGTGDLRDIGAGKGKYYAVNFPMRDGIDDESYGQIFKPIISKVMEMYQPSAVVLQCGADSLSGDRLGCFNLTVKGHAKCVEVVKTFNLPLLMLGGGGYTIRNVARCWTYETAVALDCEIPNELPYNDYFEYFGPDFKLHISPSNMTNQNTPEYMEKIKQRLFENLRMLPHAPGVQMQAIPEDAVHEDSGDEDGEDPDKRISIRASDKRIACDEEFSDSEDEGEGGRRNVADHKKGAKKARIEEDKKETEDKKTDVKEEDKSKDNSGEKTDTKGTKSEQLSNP
Sequence of HDAC1 (Q13547 whole entry): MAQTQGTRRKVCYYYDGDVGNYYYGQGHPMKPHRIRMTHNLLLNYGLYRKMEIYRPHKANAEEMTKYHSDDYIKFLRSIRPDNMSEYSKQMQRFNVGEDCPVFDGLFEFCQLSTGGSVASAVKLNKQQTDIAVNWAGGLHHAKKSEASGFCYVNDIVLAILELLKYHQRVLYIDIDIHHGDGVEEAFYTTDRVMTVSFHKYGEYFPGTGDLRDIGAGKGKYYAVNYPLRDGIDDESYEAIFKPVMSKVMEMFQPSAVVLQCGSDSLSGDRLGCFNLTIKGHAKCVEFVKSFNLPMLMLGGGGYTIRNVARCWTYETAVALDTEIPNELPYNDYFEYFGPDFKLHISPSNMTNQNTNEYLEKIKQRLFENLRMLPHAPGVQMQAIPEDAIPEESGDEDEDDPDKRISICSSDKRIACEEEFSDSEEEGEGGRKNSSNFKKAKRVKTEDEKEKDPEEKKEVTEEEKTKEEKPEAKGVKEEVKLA

IC50 (HDAC1): 520 ± 20 nM
IC50 (HDAC2): 550 ± 60 nM
IC50 (HDAC3): 670 ± 5 nM
IC50 (HDAC4): > 10000 nM
IC50 (HDAC7): > 10000 nM
IC50 (HDAC9): > 10000 nM
IC50 (HDAC11): > 10000 nM
Compound: Cc1ccc(/C=C/CC(=O)Nc2ccc(C(=O)Nc3ccc(F)cc3N)nc2)cn1 [GNTbm-02, 5-((E)-4-(6-methylpyridin-3-yl)but-3-enamido)-N-(2-amino-4-fluorophenyl)pyridine-2-carboxamide]
IC50 (NCI-N87): 4010 ± 490 nM
IC50 (SK-BR-3): 2000 ± 15 nM
IC50 (M10): 4310 ± 160 nM
IC50 (MDA-MB-231): 13500 ± 1780 nM
IC50 (MDA-MB-453): 1690 ± 8 nM
IC50 (SW48): 2510 ± 110 nM
Cell cycle arrest (M10 cells [1]): significantly induced cell cycle arrest of M10 cells in the G2/M phase
Cells in G2/M phase (M10 cells [1]): 16.2%
Cell cycle arrest (MDA-MB-231 cells [2]): significantly induced cell cycle arrest in G0/G1 phase
Cell cycle arrest (SW48 cells [3]): significantly induced cell cycle arrest in G0/G1 phase
Cells in G0/G1 phase (SW48 cells [3]): 76.9%
Induction of apoptosis (sub-G1 phase) (M10 cells [4]): significantly induced apoptosis in M10 cells
Induction of apoptosis (sub-G1 phase) (MDA-MB-231 cells [5]): significantly induced apoptosis
Induction of apoptosis (sub-G1 phase) (SW48 cells [6]): significantly induced apoptosis
Histone H3 acetylation, time course ([7]; 2-72 h): potently induced histone H3 acetylation in MDA-MB-231 cell after 6 h treatment
Level of histone H3 acetylation ([7]; 24 h): significantly increased the level of histone H3 acetylation
Histone H3 acetylation, time course [8]: potently induced histone H3 acetylation level in SW48 cells after 6 h treatment
Inhibition of cell proliferation (M10 cells [9]): significantly inhibited cell proliferation
Inhibition of cell proliferation (SW48 cells [10]): inhibitory effect was more obvious for SW48 cells
HDAC4 Inhibition at 10 μM (HDAC4; 10 μM): not inhibited; also recorded: No Inhibition at 10 μM
HDAC7 Inhibition at 10 μM (HDAC7; 10 μM): not inhibited; also recorded: No Inhibition at 10 μM
HDAC9 Inhibition at 10 μM (HDAC9; 10 μM): not inhibited; also recorded: No Inhibition at 10 μM
HDAC11 Inhibition at 10 μM (HDAC11; 10 μM): not inhibited; also recorded: No Inhibition at 10 μM
